EP2062578A1, “Novel use of chemical compounds for the treatment of AIDS” (priority 2007, dated 2009)
“Also recorded” adds a separate entry of the source.

Columns and labels:
Nef57-205 = target: T1, Nef57-205 (Human immunodeficiency virus type 1 group M subtype B, UniProt P03406); test: Isothermal Titration Calorimetry (ITC) binding to Nef57-205; parameters: species or system HIV-1; details: for ΔH: enthalpy variation; for ΔH / TΔS / ΔG / N: ITC at 25 °C; for TΔS: entropy variation; for ΔG: free enthalpy variation; for N: stoichiometry, Compound X in 20 mM Hepes pH 7.0, Compound Y in 20 mM Na-phosphate pH 8.0, 100 mM NaCl, 5% DMSO
T1 construct: Purified Nef57-205, as described in Arold et al, Structure 1997 5(10) p 1361); made in house
Method: Isothermal titration calorimetry (ITC) is used to investigate in vitro the binding affinity and thermodynamic parameters of the inhibitory molecules.
Purified Nef57-205, as described in Arold et al, Structure 1997 5(10) p 1361) was extensively dialyzed in degassed ITC buffer (20 mM Hepes pH 7.0, 100 mM NaCl, 5% DMSO), except for binding experiments with Compound Y, where 20 mM Na-phosphate pH 8.0, 100 mM NaCl, 5% DMSO was used as buffer. Synthetic inhibitors were first dissolved at 10 mM in 100% DMSO, and then diluted to 300 - 400 µM in ITC buffer with DMSO concentration adjusted to 5%. Inhibitors were injected from the 300 µL syringe into the 1.4 mL sample cell containing 15-25 µM Nef57-205. ITC titrations were performed at 25 °C, using 10 - 15 µl injections every 300 secondes. All inhibitors were also titrated into ITC buffer alone, and the resulting heat of dilution was subtracted from the experimental curves. ITC was performed with a VP ITC MicroCalorimeter from MicroCal Inc., and data were fitted with Microcal Origin™ software. The results are summarized in Table I and illustrated in Figure 1.

[1] = test system: Nef-mediated MHC-I down-regulation; test: MHC-I down-regulation by Nef in Nef-GFP transfected human PBMC (flow cytometry); type: cell-based; details: 25µM or 10µM for 3 hr, compared with 5µM LY294002 as control
Method: (§1) Nef advances the endocytosis and degradation of […] surface proteins, including CD4 and MHC proteins (Schwartz et al., 1996, Nature Medecine 2:338-342). Consequently, some compounds of the instant invention were tested for their ability to prevent their degradations by interacting with Nef. Human peripheral blood mononuclear cells (PBMC) from healthy volunteers were purified by Ficoll gradient centrifugation ( Lymphoprep™, Axis-shield). Washed, isolated PBMC were transiently transfected using the nucleofection technology (human T cell Nucleofector™ kit, 5.10^6 cells, 5µg plasmid DNA Nef-GFP or GFP (Nucleofactor Program V-024™, Amaxa Biosystems)). The same Nef sequence as described above in example 1 was cloned in pEGFP-N3 (Clonetech). […]
(§2) At 45 hr post transfection cells were treated with 25 µM of Compound X or 0.5% DMSO (control) for 3 hrs. Cells were then incubated with human anti-CD4+-PE or human anti-HLA-ABC (MHC-I) and analyzed by flow cytometry. Flow Cytometric Analysis were performed as follows: Cells were washed and resuspended in fluorescence-activated cell sorter (FACS) medium (PBS 2% FCS 0.02% NaN3, pH 7.2). […] Cells were washed and analyzed on FACS scan using Flow Jo software™ (Beckman Coulter for 20100326 and BD Pharmingen for 551497).
(§3) Viable CD4+ T cells were analyzed for GFP and anti-CD4+ (panel A, figure 2) or GFP and anti-HLA-ABC (panel B, figure 2) staining. […]

[2] = test system: Nef-mediated CD4 down-regulation; test: CD4 down-regulation by Nef in Nef-GFP transfected human PBMC (flow cytometry); type: cell-based; details: 25µM or 10µM for 3 hr
Method: as §1, §2, §3

## CC(C)(C)c1ccc(OC(=O)Nc2ccc(O)c(C(=O)O)c2)cc1 [Compound X, 2-hydroxy-5-[(4-tert-butylphenoxy)carbonylamino]benzoic acid]
Nef57-205
  Kd: 1800 ± 850 nM
  ΔH: -0.956 ± 0.096 kcal/mol
  TΔS: 6.88 kcal/mol
  ΔG: -7.84 kcal/mol
  N: 0.83 ± 0.06
[1]
  Nef-mediated MHC-I down-regulation: reduce in a dose-dependent manner; also recorded: partially blocked
[2]
  Nef-mediated CD4 down-regulation: not

## CC(C)(C)c1ccc(OCC(=O)Nc2cccc(C(=O)O)c2)cc1 [Compound Y, 3-{[(4-tert-butylphenoxy)acetyl]amino}benzoic acid]
Nef57-205
  Kd: 980 ± 300 nM
  ΔH: -0.765 ± 0.0478 kcal/mol
  TΔS: 7.41 kcal/mol
  ΔG: -8.17 kcal/mol
  N: 1.14 ± 0.1
